Assay results from patent US11766415B2, “Reducing triglyceride levels and cortisol levels with pharmaceutical preparations” (GLYKON TECHNOLOGIES GROUP, LLC, priority 2020, dated 2023).

How the values were obtained:
[1] = tested on: Cortisol; experiment: Blood cortisol before and 90 minutes after administration; assay type: in vivo, human
Protocol: (§1) Subject 5 was a person, weighing approximately 285 pounds and with a normal fasting blood sugar level of 115-120. First, blood was drawn from Subject 5 and levels of various biomolecules were measured. Next, Subject 5 was administered 16.66 ml of the Example 1 formulation on an empty stomach, i.e. wherein with each 16.66 ml the subject received 5,000 mg of the potassium-magnesium (−)-hydroxycitric acid salt, corresponding to 3490 mg of (−)-hydroxycitric acid. 90 minutes after the administration, blood was drawn from Subject 5 and levels of the various biomolecules were remeasured.
(§2) Subject 6 was administered 16.66 ml of the Example 1 formulation on an empty stomach, i.e. wherein with each 16.66 ml the subject received 5,000 mg of the potassium-magnesium (−)-hydroxycitric acid salt, corresponding to 3490 mg of (−)-hydroxycitric acid. 90 minutes after the administration, blood was drawn from Subject 6 and levels of the various biomolecules were remeasured.

[2] = tested on: Triglycerides; experiment: Blood triglycerides before and 90 minutes after administration; assay type: in vivo, human
Protocol: as §1, §2

[3] = tested on: blood hemoglobin and oxygen saturation; experiment: fNIRS measurement of blood hemoglobin and oxygen saturation after oral administration; assay type: in vivo, human; details: conclusion, summary over subjects
Protocol: Subjects 1-4 were orally administered the formulation of Example 1. The Subjects were given either one or two administrations of 8.33 ml of the aqueous formulation of Example 1 on an empty stomach, i.e. wherein with each 8.33 ml the subject received 2,500 mg of the potassium-magnesium (−)-hydroxycitric acid salt, corresponding to 1745 mg of (−)-hydroxycitric acid.
fNIRS testing (functional Near Infrared Spectroscopy) was used to measure blood hemoglobin and oxygen saturation. fNIRS can be used to determine real-time peripheral and cerebral hemodynamic responses. For example, relative changes in HbR (deoxygen saturation), HbO (oxygen saturation), and HbT (total hemoglobin concentration), etc. can be determined via application of Modified Beer Lambert Law. HbR, Hb=deoxygen saturation (shown as the thinnest and bottom dashed line in FIG. 1) HbO, HbO2=oxygen saturation (shown as the medium-thickness and middle line in FIG. 1) HbT=total hemoglobin concentration (shown as the darkest, thickest and top line in FIG. 1). On the graphs, time is in seconds.

[4] = target: T1, ATP citrate lyase (Homo sapiens, UniProt P53396); details: background statement; cited from earlier work
T1 sequence (P53396 1-1101): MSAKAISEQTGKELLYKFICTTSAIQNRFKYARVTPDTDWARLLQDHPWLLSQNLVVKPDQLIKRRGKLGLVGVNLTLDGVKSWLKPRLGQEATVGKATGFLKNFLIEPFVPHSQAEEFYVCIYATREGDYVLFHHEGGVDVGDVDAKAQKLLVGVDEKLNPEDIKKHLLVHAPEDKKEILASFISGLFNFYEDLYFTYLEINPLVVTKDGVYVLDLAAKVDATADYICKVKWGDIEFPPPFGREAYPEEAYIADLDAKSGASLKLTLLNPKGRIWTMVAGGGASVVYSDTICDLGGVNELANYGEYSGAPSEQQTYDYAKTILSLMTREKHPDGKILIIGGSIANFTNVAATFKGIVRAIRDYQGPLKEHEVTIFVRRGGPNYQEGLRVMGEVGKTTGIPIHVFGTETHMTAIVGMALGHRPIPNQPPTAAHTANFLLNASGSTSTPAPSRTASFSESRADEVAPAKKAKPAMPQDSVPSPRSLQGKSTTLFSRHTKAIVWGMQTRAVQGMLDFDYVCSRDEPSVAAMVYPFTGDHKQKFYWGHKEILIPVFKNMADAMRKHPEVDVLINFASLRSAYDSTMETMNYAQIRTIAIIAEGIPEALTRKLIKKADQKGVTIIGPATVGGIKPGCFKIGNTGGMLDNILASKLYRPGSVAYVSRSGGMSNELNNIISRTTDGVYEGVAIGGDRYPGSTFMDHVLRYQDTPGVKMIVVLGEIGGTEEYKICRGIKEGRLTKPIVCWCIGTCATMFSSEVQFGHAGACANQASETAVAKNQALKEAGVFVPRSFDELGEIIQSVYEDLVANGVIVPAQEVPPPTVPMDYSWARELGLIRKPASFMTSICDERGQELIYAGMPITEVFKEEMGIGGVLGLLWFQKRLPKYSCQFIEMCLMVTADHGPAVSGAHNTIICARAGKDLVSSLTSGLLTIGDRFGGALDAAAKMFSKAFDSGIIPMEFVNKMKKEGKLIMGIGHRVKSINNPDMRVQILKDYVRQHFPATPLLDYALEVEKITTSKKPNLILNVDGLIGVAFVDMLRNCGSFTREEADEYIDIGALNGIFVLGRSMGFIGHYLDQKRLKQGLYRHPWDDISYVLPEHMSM

[5] = tested on: blood sugar; experiment: Blood sugar levels after HCA administration; assay type: in vivo, human; details: conclusion, summary; in some cases only transient
Protocol: as §1, with “remeasured. […] It is hypothesized that this transient elevation is due to Randall's Cycle. […] In support of this explanation, it is noted that this subject had previously used HCA formulations with the result of keeping their otherwise elevated fasting blood glucose levels in the low- to mid-90s with consistent usage.” for “remeasured.”

[6] = tested on: Ketones; experiment: Blood ketones before and 90 minutes after administration; assay type: in vivo, human
Protocol: as §1

[7] = tested on: intestinal alpha-glucosidase; details: background statement; in vitro; cited from earlier work
[8] = target: T2, pancreatic alpha-amylase (Homo sapiens, UniProt P04746); details: background statement; in vitro; cited from earlier work
T2 sequence (P04746 16-511): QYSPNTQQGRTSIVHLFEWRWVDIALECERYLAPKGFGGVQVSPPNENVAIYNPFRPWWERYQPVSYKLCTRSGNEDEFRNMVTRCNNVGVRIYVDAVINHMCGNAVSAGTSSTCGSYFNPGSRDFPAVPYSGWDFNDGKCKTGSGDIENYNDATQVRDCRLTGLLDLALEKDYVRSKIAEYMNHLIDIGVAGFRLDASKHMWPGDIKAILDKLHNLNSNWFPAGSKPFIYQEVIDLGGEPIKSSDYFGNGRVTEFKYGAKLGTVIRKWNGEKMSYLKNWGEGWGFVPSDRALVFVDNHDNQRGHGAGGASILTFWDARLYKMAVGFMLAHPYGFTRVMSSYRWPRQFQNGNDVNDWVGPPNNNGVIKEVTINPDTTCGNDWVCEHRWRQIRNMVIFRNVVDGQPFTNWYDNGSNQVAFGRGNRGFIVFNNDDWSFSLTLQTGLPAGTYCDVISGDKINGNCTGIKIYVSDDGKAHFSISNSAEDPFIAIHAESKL

[9] = a subject (Example 3), 5,000 mg salt (3,490 mg (−)-hydroxycitric acid), 90 minutes later
[10] = conclusion, summary over subjects

potassium-magnesium salt of (−)-hydroxycitric acid
decrease in cortisol level [1, 9]: 20% | decrease in triglyceride level [2, 9]: 67%

O=C(O)CC(O)(C(=O)O)C(O)C(=O)O (stereo not drawn) [HCA, 1,2-dihydroxypropane-1,2,3-tricarboxylic acid]
blood hemoglobin [3]: increased | oxygen saturation [3]: increased | inhibition of ATP citrate lyase [4]: competitive inhibitor | glucose [5]: increased | cortisol [1, 10]: decreased | triglycerides [2, 10]: decreased | Ketones Result ([6]; Subject 5, 5,000 mg salt, empty stomach, 90 mins after administration, before 0.6): 0.5 | levels of ketones ([6]; conclusion, summary): relatively stable or slightly lower

O=C(O)C[C@](O)(C(=O)O)[C@H](O)C(=O)O [(2S,3R)-HCA]
inhibition of intestinal alpha-glucosidase [7]: inhibits | inhibition of pancreatic alpha-amylase [8]: inhibits
